Laboratory results reported in paper PMC3894853 (Journal of medicinal chemistry, 2013).
Where two headings read alike, the source gives them in different places.

Tests used:
hSERT WT = hSERT WT (Homo sapiens, UniProt P31645)
SERT = SERT (Rattus norvegicus, UniProt P31652); assay: Radioligand binding assay for SERT, displacement of [3H]1; conditions: for Ki(NET)/Ki (SERT): selectivity ratio
NET = NET (Rattus norvegicus, UniProt Q9WTR4); assay: Radioligand binding assay for NET, displacement of [3H]nisoxetine
[1] = 30 µM compound, 18°C, COS-7 membranes, hSERT WT
[2] = 30 µM compound, extrapolated from 24°C with the temperature factor of S-1

hSERT WT, sequence (P31645 whole entry): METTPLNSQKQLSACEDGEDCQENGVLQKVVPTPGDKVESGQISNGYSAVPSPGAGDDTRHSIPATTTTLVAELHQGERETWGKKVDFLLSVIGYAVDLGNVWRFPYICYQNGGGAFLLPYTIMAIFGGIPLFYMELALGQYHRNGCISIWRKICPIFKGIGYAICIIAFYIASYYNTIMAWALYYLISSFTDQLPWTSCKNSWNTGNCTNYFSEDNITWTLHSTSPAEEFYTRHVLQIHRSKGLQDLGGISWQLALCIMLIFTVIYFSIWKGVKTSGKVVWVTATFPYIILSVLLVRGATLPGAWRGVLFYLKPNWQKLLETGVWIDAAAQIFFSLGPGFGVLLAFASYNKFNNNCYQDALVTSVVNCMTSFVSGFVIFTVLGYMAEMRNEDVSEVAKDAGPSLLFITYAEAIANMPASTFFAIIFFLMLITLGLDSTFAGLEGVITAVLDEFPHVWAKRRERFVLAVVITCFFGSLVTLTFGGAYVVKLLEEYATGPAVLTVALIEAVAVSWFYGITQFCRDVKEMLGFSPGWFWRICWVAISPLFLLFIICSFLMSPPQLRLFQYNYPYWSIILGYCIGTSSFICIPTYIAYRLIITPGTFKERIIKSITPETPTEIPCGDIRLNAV
SERT, sequence (P31652 whole entry): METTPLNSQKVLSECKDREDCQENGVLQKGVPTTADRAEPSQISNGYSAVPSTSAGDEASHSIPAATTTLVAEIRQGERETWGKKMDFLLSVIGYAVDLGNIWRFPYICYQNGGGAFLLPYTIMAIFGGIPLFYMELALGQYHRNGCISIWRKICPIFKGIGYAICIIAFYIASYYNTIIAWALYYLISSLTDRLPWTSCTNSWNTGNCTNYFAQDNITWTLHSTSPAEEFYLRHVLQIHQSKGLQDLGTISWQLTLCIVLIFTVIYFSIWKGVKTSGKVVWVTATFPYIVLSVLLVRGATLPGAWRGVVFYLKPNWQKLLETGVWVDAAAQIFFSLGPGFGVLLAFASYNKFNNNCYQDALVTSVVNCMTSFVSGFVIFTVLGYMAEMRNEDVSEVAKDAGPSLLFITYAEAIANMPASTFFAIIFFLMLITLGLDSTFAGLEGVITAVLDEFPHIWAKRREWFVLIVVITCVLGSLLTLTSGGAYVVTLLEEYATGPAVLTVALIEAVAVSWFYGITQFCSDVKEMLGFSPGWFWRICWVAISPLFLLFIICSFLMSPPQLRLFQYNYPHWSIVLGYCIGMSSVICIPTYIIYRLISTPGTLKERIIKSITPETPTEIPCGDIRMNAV
NET, sequence (Q9WTR4 1-597): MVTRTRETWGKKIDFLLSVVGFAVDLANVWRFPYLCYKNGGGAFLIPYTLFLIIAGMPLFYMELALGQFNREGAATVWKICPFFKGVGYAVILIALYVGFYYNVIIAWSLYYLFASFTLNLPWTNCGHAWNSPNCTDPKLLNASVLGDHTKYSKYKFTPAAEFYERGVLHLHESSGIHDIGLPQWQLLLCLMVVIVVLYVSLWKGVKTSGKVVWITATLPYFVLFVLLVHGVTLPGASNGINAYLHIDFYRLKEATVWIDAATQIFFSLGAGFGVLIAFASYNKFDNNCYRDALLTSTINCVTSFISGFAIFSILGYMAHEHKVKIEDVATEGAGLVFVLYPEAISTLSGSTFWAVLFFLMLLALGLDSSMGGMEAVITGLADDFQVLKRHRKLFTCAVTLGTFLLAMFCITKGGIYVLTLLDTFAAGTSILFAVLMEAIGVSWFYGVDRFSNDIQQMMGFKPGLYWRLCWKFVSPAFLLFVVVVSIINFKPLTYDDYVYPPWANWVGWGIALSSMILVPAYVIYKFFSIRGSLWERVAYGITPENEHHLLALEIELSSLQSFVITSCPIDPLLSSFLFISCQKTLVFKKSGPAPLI

Compound	[3H] S-1 dissoc. t½ (min) at 18°C (hSERT WT) [min]	[3H] S-1 dissoc. t½ (min) at 18°C (hSERT WT; [1]) [min]	other results
CN(CCCC1(c2ccc(F)cc2)OCc2cc(C#N)ccc21)CCc1ccccc1 (stereo not drawn) [Compound 42, 1-(4-Fluorophenyl)-1-(3-(methyl(phenethyl)amino)propyl)-1,3-dihydroisobenzofuran-5-carbonitrile]	–	–	[3H] S-1 dissoc. t½ (min) at 24°C (hSERT WT): 45.4 ± 5.9 min; 24°C dissociation t½ calculated to a t½ at 18°C (hSERT WT; [2]): 110 ± 14 min
CN(C)CCCC1(c2ccc(F)cc2)OCc2cc(/C=C/c3ccccc3)ccc21 (single isomer, unassigned; (+)) [(+)62]	–	–	24°C dissociation t½ calculated to a t½ at 18°C (hSERT WT): 132.3 ± 8.5 min; [3H] S-1 dissoc. t½ (min) at 24°C (hSERT WT; 30 µM compound, 24°C, COS-7 membranes, hSERT WT): 54.9 ± 3.5 min
CN(C)CCCC1(c2ccc(F)cc2)OCc2cc(CNCc3ccc4ccccc4c3)ccc21 (stereo not drawn) [Compound 13, 3-(1-(4-Fluorophenyl)-5-(((naphthalen-2-ylmethyl)amino)methyl)-1,3-dihydroisobenzofuran-1-yl)-N,N-dimethylpropan-1-amine]	22.1 ± 1.5	–	–
CN(CCCC1(c2ccc(F)cc2)OCc2cc(C#N)ccc21)Cc1ccc2c(c1)Cc1ccccc1-2 (stereo not drawn) [Compound 50, 1-(3-(((9H-Fluoren-2-yl)methyl)(methyl)amino)propyl)-1-(4-fluorophenyl)-1,3-dihydroisobenzofuran-5-carbonitrile]	–	–	Ki(NET)/Ki (SERT) (SERT; Table 3): >100
CN(C)CCCC1(c2ccc(F)cc2)OCc2cc(/C=C/c3ccccc3)ccc21 (single isomer, unassigned; (-)) [(−)62]	–	37.3 ± 9.5	–
CN(C)CCCC1(c2ccc(F)cc2)OCc2cc(I)ccc21 (stereo not drawn) [Compound 63]	–	34.4 ± 6.6	–
CN(C)CCCC1(c2ccc(F)cc2)OCc2cc(-c3ccc([N+](=O)[O-])cc3)ccc21 (stereo not drawn) [Compound 19, 3-(1-(4-Fluorophenyl)-5-(4-nitrophenyl)-1,3-dihydroisobenzofuran-1-yl)-N,N-dimethylpropan-1-amine]	–	–	[3H] S-1 dissoc. t½ (min) at 24°C (hSERT WT): 40.2 ± 7.0 min; 24°C dissociation t½ calculated to a t½ at 18°C (hSERT WT; [2]): 97 ± 17 min
CNCCCC1(c2ccc(F)cc2)OCc2cc(C#N)ccc21 (stereo not drawn) [Compound 38, 1-(4-Fluorophenyl)-1-(3-(methylamino)propyl)-1,3-dihydroisobenzofuran-5-carbonitrile]	–	–	Ki (NET): 0.88 ± 0.0124 µM; Ki (SERT): 5.04 ± 0.176 nM; Ki(NET)/Ki (SERT) (SERT; Table 3): 174.6
CN(C)CCCC1(c2ccc(F)cc2)OCc2cc(-c3cccc(N)c3)ccc21 (stereo not drawn) [Compound 61]	–	43.1 ± 6.2	–
CN(C)CCCC1(c2ccc(F)cc2)OCc2cc(Br)ccc21 (stereo not drawn) [Compound 17]	–	–	Ki (NET): 28.4 µM; Ki(NET)/Ki (SERT) (SERT; Table 1): >10,000
CN(C)CCCC1(c2ccc(F)cc2)OCc2cc(CN)ccc21 (stereo not drawn) [Compound 5, 3-(5-(Aminomethyl)-1-(4-fluorophenyl)-1,3-dihydroisobenzofuran-1-yl)-N,N-dimethylpropan-1-amine]	–	17.4 ± 0.8	–

Continued, in another order:

[3H] S-1 dissoc. t½ (min) at 18°C (hSERT WT) [min]	[3H] S-1 dissoc. t½ (min) at 18°C (hSERT WT; [1]) [min]	Compound	other results
16.4 ± 0.3	–	CN(C)CCCC1(c2ccc(F)cc2)OCc2cc(CN3CCN(c4ccccc4)CC3)ccc21 (stereo not drawn) [Compound 8, 3-(1-(4-Fluorophenyl)-5-((4-phenylpiperazin-1-yl)methyl)-1,3-dihydroisobenzofuran-1-yl)-N,N-dimethylpropan-1-amine]	–
–	29.0 ± 1.3	CN(CCCC1(c2ccc(F)cc2)OCc2cc(C#N)ccc21)Cc1ccnc2ccccc12 (stereo not drawn) [Compound 48, 1-(4-Fluorophenyl)-1-(3-(methyl(quinolin-4-ylmethyl)amino)propyl)-1,3-dihydroisobenzofuran-5-carbonitrile]	–
33.2 ± 5.8	–	CN(C)CCCC1(c2ccc(F)cc2)OCc2c(I)cccc21 (stereo not drawn) [Compound 22, 3-(1-(4-Fluorophenyl)-4-iodo-1,3-dihydroisobenzofuran-1-yl)-N,N-dimethylpropan-1-amine]	–
–	21.4 ± 0.3	CN(C)CCCC1(c2ccc(F)cc2)OCc2cc(CNCc3ccc4c(c3)COC4(CCCN(C)C)c3ccc(F)cc3)ccc21 (stereo not drawn) [Compound 15, 3-(5-((((1-(3-(Dimethylamino)propyl)-1-(4-fluorophenyl)-1,3-dihydroisobenzofuran-5-yl)methyl)amino)methyl)-1-(4-fluorophenyl)-1,3-dihydroisobenzofuran-1-yl)-N,N-dimethylpropan-1-amine]	–
23.1 ± 2.9	–	CN(C)CCCC1(c2ccc(F)cc2)OCc2cc(/C=C/Cc3ccccc3)ccc21 (stereo not drawn) [Compound 21, (E)-3-(1-(4-Fluorophenyl)-5-(3-phenylprop-1-en-1-yl)-1,3-dihydroisobenzofuran-1-yl)-N,N-dimethylpropan-1-amine]	–
–	24.7 ± 5.4	CN(C)CCCC(O)(c1ccc(Br)cc1)c1ccc(C#N)cc1CO (stereo not drawn) [Compound 24, 4-(1-(4-Bromophenyl)-4-(dimethylamino)-1-hydroxybutyl)-3-(hydroxymethyl)benzonitrile]	–
–	24.8 ± 1.1	CN(C)CCCC1(c2ccc(F)cc2)OCc2cc(CN3CCN(c4cccc(Cl)c4Cl)CC3)ccc21 (stereo not drawn) [Compound 10, 3-(5-((4-(2,3-Dichlorophenyl)piperazin-1-yl)methyl)-1-(4-fluorophenyl)-1,3-dihydroisobenzofuran-1-yl)-N,N-dimethylpropan-1-amine]	–
–	59.6 ± 1.0	CN(CCCC1(c2ccc(F)cc2)OCc2cc(C#N)ccc21)Cc1csc2ccccc12 (stereo not drawn) [Compound 45, 1-(3-((Benzo[b]thiophen-3-yl-methyl)(methyl)amino)propyl)-1-(4-fluorophenyl)-1,3-dihydroisobenzofuran-5-carbonitrile]	–
60.1 ± 1.0	–	CN(CCCC1(c2ccc(F)cc2)OCc2cc(C#N)ccc21)Cc1ccc2ccccc2c1 (stereo not drawn) [Compound 49, 1-(4-Fluorophenyl)-1-(3-(methyl(naphthalen-2-ylmethyl)amino)propyl)-1,3-dihydroisobenzofuran-5-carbonitrile]	–
41.2 ± 2.8	–	CN(CCCC1(c2ccc(F)cc2)OCc2cc(C#N)ccc21)Cc1ccc(N(C)C)cc1 (stereo not drawn) [Compound 46, 1-(3-((4-(Dimethylamino)benzyl)(methyl)amino)propyl)-1-(4-fluorophenyl)-1,3-dihydroisobenzofuran-5-carbonitrile]	–
11.4 ± 0.2	–	CN(C)CCCC1(c2ccc(F)cc2)OCc2cc(CNCc3ccc4c(c3)Cc3ccccc3-4)ccc21 (stereo not drawn) [Compound 14, 3-(5-((((9H-Fluoren-2-yl)methyl)amino)methyl)-1-(4-fluorophenyl)-1,3-dihydroisobenzofuran-1-yl)-N,N-dimethylpropan-1-amine]	–
52.0 ± 7.6	–	CN(CCCC1(c2ccc(F)cc2)OCc2cc(C#N)ccc21)C1CC=C(c2c[nH]c3ccccc23)CC1 (stereo not drawn) [Compound 60, 1-(3-((4-(1H-Indol-3-yl)cyclohex-3-en-1-yl)(methyl)amino)propyl)-1-(4-fluorophenyl)-1,3-dihydroisobenzofuran-5-carbonitrile]	–
–	16.3 ± 0.1	COc1ccccc1N1CCN(Cc2ccc3c(c2)COC3(CCCN(C)C)c2ccc(F)cc2)CC1 (stereo not drawn) [Compound 9, 3-(1-(4-Fluorophenyl)-5-((4-(2-methoxyphenyl)piperazin-1-yl)methyl)-1,3-dihydroisobenzofuran-1-yl)-N,N-dimethylpropan-1-amine]	–
